Legend:
trehalase activity = assay: Trehalose accumulation in potato microtubers induced on medium with Validamycin A; format: cell-based, Solanum tuberosum cv. Kardal; details: for Trehalose (% fresh weight), +Validamycin A: 10^−3M Validamycin A
Procedure: Stem segments of in vitro potato plants harbouring an auxiliary meristem were transferred to micro-tuber inducing medium. Micro-tuber inducing medium contains 1×MS-salts supplemented with R3 vitamins, 0.5 g/l MES (final pH=5.8, adjusted with KOH) and solidified with 8 g/l Daichin agar, 60 g/l sucrose and 2.5 mg/l kinetin. After 3 to 5 weeks of growth in the dark at 24° C., micro-tubers were formed.
Validamycin A was isolated from Solacol, a commercial agricultural formulation (Takeda Chem. Indust., Tokyo) as described by Kendall et al. (1990) Phytochemistry 29, 2525. The procedure involves ion-exchange chromatography (QAE-Sephadex A-25 (Pharmacia), bed vol. 10 ml, equilibration buffer 0.2 mM Na-Pi pH 7) from a 3% agricultural formulation of Solacol. Loading 1 ml of Solacol on the column and eluting with water in 7 fractions, practically all Validamycin was recovered in fraction 4. Based on a 100% recovery, using this procedure, the concentration of Validamycin A was adjusted to 1.10^−3M in MS-medium, for use in trehalose accumulation tests. Alternatively, Validamycin A and B may be purified directly from Streptomyces hygroscopicus var. limoneus, as described by Iwasa et al. (1971) J. Antibiot. 24, 119, the content of which is incorporated herein by reference.
Carbohydrates were determined quantitatively by anion exchange chromatography with pulsed electrochemical detection. Extracts were prepared by extracting homogenized frozen material with 80% EtOH. After extraction for 15 minutes at room temperature, the soluble fraction is evaporated and dissolved in distilled water. Samples (25 μl) were analyzed on a Dionex DX-300 liquid chromatograph equipped with a 4×250 mm Dionex 35391 carbopac PA-1 column and a 4×50 mm Dionex 43096 carbopac PA-1 precolumn. Elution was with 100 mM NaOH at 1 ml/min followed by a NaAc gradient. Sugars were detected with a pulsed electrochemical detector (Dionex, PED). Commercially available carbohydrates (Sigma) were used as a standard.
Transgenic potato plants were generated harbouring the otsA gene driven by the potato tuber-specific patatin promoter (pMOG845). Potato Solanum tuberosum cv. Kardal tuber discs were transformed with Agrobacterium tumefaciens EHA105 harbouring the binary vector pMOG845. […] All plants obtained were phenotypically indistinguishable from wild type plants. […] The presence of small amounts of trehalose in wild-type plants indicates the presence of a functional trehalose biosynthetic pathway.

[1] = test system: α- or β-glycohydrolase activity; details: except for trehalase; cited from earlier work

## OCC1=C[C@H](N[C@H]2C[C@H](CO)[C@@H](O[C@@H]3O[C@H](CO)[C@@H](O)[C@H](O)[C@H]3O)[C@H](O)[C@H]2O)[C@H](O)[C@@H](O)[C@@H]1O [Validamycin A, 1,5,6-trideoxy-3-o-β-D-glucopyranosyl-5-(hydroxymethyl)-1-[[4,5,6-trihydroxy-3-(hydroxymenthyl)-2-cyclohexen-1-yl]amino]-D-chiro-inositol]
Trehalase activity; microtuber-inducing medium with 10^−3M Validamycin A, transgenic pMOG845 and wild-type plants
  Trehalose level in microtubers versus medium without Validamycin A: elevated levels of trehalose
Trehalase activity; microtubers of transgenic line 845-2 (pat-TPS)
  Trehalose (% fresh weight), +Validamycin A: 0.016 % fresh weight
Trehalase activity; microtubers of transgenic line 845-8 (pat-TPS)
  Trehalose (% fresh weight), +Validamycin A: 0.051 % fresh weight
Trehalase activity; microtubers of transgenic line 845-11 (pat-TPS)
  Trehalose (% fresh weight), +Validamycin A: 0.015 % fresh weight
Trehalase activity; microtubers of transgenic line 845-13 (pat-TPS)
  Trehalose (% fresh weight), +Validamycin A: 0.011 % fresh weight
Trehalase activity; microtubers of transgenic line 845-22 (pat-TPS)
  Trehalose (% fresh weight), +Validamycin A: 0.112 % fresh weight
Trehalase activity; microtubers of transgenic line 845-25 (pat-TPS)
  Trehalose (% fresh weight), +Validamycin A: 0.002 % fresh weight
Trehalase activity; microtubers of transgenic line 845-28 (pat-TPS)
  Trehalose (% fresh weight), +Validamycin A: 0.109 % fresh weight
Trehalase activity; microtubers of wild-type Kardal
  Trehalose (% fresh weight), +Validamycin A: 0.001 % fresh weight
[1]
  Inhibition of α- or β-glycohydrolase activity other than trehalase: does not significantly inhibit
